Some test systems named below: SW-620 colon; BT-549 breast; SK-MEL-2 melanoma; NCI-H460 lung; SK-MEL-5 melanoma; HCC-2998 colon; HL-60(TB) leukemia; PC-3 prostate; U251 CNS; MOLT-4 leukemia.
Common to all, as to experiment: NCI anticancer screen, dose series, 48 h

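Grown in 96-well plates, cells were treated for 48 hours with each compound at five concentrations. Insufficient inhibition: endpoint recorded as highest concentration tested. The concentration for 50% growth inhibition is given as GI50. TGI is the concentration that stops growth completely.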

For `[N-]=[N+]=NCCCCCC(=O)OC(C(=O)c1ccccc1)c1cccc(OCC(=O)NCCOCCOCCNC(=O)CCCC[C@@H]2SC[C@@H]3NC(=O)N[C@@H]32)c1` (stereo not given in full), the GI50 with SW-620 colon is above 100 µM; in the experiment on BT-549 breast, 26.2 µM; with SK-MEL-2 melanoma, above 100 µM; with NCI-H460 lung it was above 100 µM; in the experiment with SK-MEL-5 melanoma it was above 100 µM; in the experiment on HCC-2998 colon, 39.6 µM. For the same molecule, the GI50 with HL-60(TB) leukemia is 27.8 µM; in the experiment on PC-3 prostate it was above 100 µM; in the experiment on U251 CNS it was above 100 µM; in the experiment on MOLT-4 leukemia it was 43.8 µM. The TGI was above 100 µM in the experiment on SW-620 colon; 84.7 µM in the experiment with BT-549 breast; above 100 µM in the experiment with SK-MEL-2 melanoma; above 100 µM in the experiment with NCI-H460 lung; above 100 µM in the experiment on SK-MEL-5 melanoma; above 100 µM in the experiment with HCC-2998 colon. Besides, the TGI in the experiment on HL-60(TB) leukemia, with PC-3 prostate, in the experiment on U251 CNS and with MOLT-4 leukemia was above 100 µM throughout.

As for `O=C(Cc1ccc(F)c(F)c1)Nc1cc(C2(C(F)(F)F)CC2)nn1Cc1ccccc1`, the GI50 was 3.91 µM with SW-620 colon; 3.73 µM with BT-549 breast; 4.4 µM in the experiment with SK-MEL-2 melanoma; 3.16 µM in the experiment with NCI-H460 lung; 2.77 µM with SK-MEL-5 melanoma; 4.77 µM with HCC-2998 colon. The GI50 in the experiment with HL-60(TB) leukemia was 3.43 µM; with PC-3 prostate, 4.67 µM; with U251 CNS, 4.61 µM; in the experiment with MOLT-4 leukemia, 3.96 µM. In addition, the TGI with SW-620 colon was above 15 µM; in the experiment with BT-549 breast it was above 15 µM; with SK-MEL-2 melanoma it was above 15 µM; in the experiment on NCI-H460 lung, 7.58 µM; in the experiment with SK-MEL-5 melanoma, 5.4 µM; in the experiment with HCC-2998 colon, above 15 µM. The TGI in the experiment with HL-60(TB) leukemia is 8.33 µM; in the experiment on PC-3 prostate, above 15 µM; in the experiment with U251 CNS, above 15 µM; with MOLT-4 leukemia, 13.8 µM.

Turning to `N=c1ccn(O)cc1/C=C1/C(=O)Nc2ccccc21`, the GI50 in the experiment on SW-620 colon, in the experiment with BT-549 breast, in the experiment with SK-MEL-2 melanoma, in the experiment with NCI-H460 lung, with SK-MEL-5 melanoma and with HCC-2998 colon was above 100 µM throughout. Further, the GI50 in the experiment on HL-60(TB) leukemia, with PC-3 prostate, with U251 CNS and in the experiment with MOLT-4 leukemia was above 100 µM throughout. For the same molecule, the TGI in the experiment with SW-620 colon, with BT-549 breast, with SK-MEL-2 melanoma, in the experiment on NCI-H460 lung, with SK-MEL-5 melanoma and in the experiment with HCC-2998 colon was above 100 µM each time. Also, the TGI in the experiment on HL-60(TB) leukemia, in the experiment with PC-3 prostate, with U251 CNS and in the experiment with MOLT-4 leukemia was above 100 µM throughout.

As for `COc1ccc2ccccc2c1C1NC(=O)c2ccccc2N1` (stereo not given), the TGI in the experiment on SW-620 colon is above 37.5 µM; with BT-549 breast, above 100 µM; in the experiment with SK-MEL-2 melanoma it was above 100 µM; in the experiment with NCI-H460 lung it was 29.6 µM; in the experiment on SK-MEL-5 melanoma, 6.31 µM; with HCC-2998 colon it was 5.92 µM. The TGI in the experiment with HL-60(TB) leukemia came to 0.877 µM; with PC-3 prostate, 3.19 µM; in the experiment with U251 CNS, 8.78 µM; in the experiment on MOLT-4 leukemia it was 9.2 µM.

In the case of `COc1cccc(NC(=O)c2sc3nc(C)c(C(O)c4ccccc4)cc3c2N)c1` (stereo not given), the GI50 in the experiment with SW-620 colon is 0.228 µM; with BT-549 breast, 0.335 µM; in the experiment with SK-MEL-2 melanoma, 0.96 µM; in the experiment on NCI-H460 lung, 0.324 µM; with SK-MEL-5 melanoma, 0.287 µM; with HCC-2998 colon, 0.359 µM. In addition, the GI50 was 0.231 µM with HL-60(TB) leukemia, 0.49 µM with PC-3 prostate, 0.289 µM in the experiment with U251 CNS and 0.378 µM in the experiment with MOLT-4 leukemia. Also, the TGI in the experiment with SW-620 colon amounted to 27.1 µM; in the experiment on BT-549 breast it was 19.5 µM; with SK-MEL-2 melanoma it was 29.7 µM; with NCI-H460 lung, 3.21 µM; in the experiment with SK-MEL-5 melanoma, 1.32 µM; with HCC-2998 colon it was 4.05 µM. Further, the TGI turned out to be 0.742 µM in the experiment on HL-60(TB) leukemia, 22.3 µM in the experiment on PC-3 prostate, 22.3 µM in the experiment with U251 CNS and 19.5 µM in the experiment with MOLT-4 leukemia.

Consider `Cc1cc(N2CCOCC2)nc(N[C@@H]2CCC[C@H](Nc3ccnc4cc(Cl)ccc34)C2)n1`, for which the GI50 in the experiment with SW-620 colon is 2.07 µM; in the experiment on BT-549 breast, 2.34 µM; in the experiment with SK-MEL-2 melanoma it was 2.07 µM; in the experiment on NCI-H460 lung, 2.66 µM; with SK-MEL-5 melanoma, 1.86 µM; in the experiment with HCC-2998 colon it was 2.05 µM. Besides, the GI50 in the experiment with HL-60(TB) leukemia is 1.98 µM; with PC-3 prostate it was 2.38 µM; in the experiment with U251 CNS, 2.1 µM; in the experiment on MOLT-4 leukemia, 2.28 µM. Besides, the TGI with SW-620 colon was determined as 5.36 µM; with BT-549 breast, 5.01 µM; in the experiment on SK-MEL-2 melanoma it was 4.02 µM; in the experiment on NCI-H460 lung, 8.64 µM; in the experiment on SK-MEL-5 melanoma, 3.27 µM; in the experiment on HCC-2998 colon, 4.55 µM. Besides, the TGI was 3.87 µM in the experiment on HL-60(TB) leukemia, 6.01 µM with PC-3 prostate, 4.4 µM in the experiment on U251 CNS and 7.19 µM in the experiment on MOLT-4 leukemia.

With `COCc1cc(C(=O)Nc2cc([C@H]3CC[C@@H](OC(=O)NC(C)C)C3)[nH]n2)n(C)n1`, the GI50 with SW-620 colon is 4.32 µM; with BT-549 breast it was 9.27 µM; in the experiment with SK-MEL-2 melanoma it was 10.6 µM; in the experiment with NCI-H460 lung, 5.64 µM; with SK-MEL-5 melanoma, 15.6 µM; in the experiment on HCC-2998 colon it was 5.39 µM. For the same molecule, the GI50 in the experiment on HL-60(TB) leukemia is 2.55 µM; in the experiment with PC-3 prostate, 10.3 µM; in the experiment on U251 CNS, 8.94 µM; in the experiment with MOLT-4 leukemia, 5.34 µM. Besides, the TGI was 74.7 µM with SW-620 colon; 41.1 µM in the experiment on BT-549 breast; 27.2 µM in the experiment with SK-MEL-2 melanoma; above 100 µM with NCI-H460 lung; 39.3 µM in the experiment with SK-MEL-5 melanoma; 48.2 µM in the experiment on HCC-2998 colon. Moreover, the TGI is 11.4 µM in the experiment on HL-60(TB) leukemia, 73.6 µM in the experiment on PC-3 prostate, above 100 µM in the experiment with U251 CNS and 68.1 µM in the experiment with MOLT-4 leukemia.

Turning to `Oc1ccc(C(c2ccc(O)cc2)c2ccc(O)cc2)cc1`, the TGI came out at 88.1 µM with SW-620 colon; 54.2 µM in the experiment with BT-549 breast; 55 µM with SK-MEL-2 melanoma; 46.3 µM with NCI-H460 lung; 30.6 µM with SK-MEL-5 melanoma; 40 µM in the experiment with HCC-2998 colon. Also, the TGI came out at 41.5 µM in the experiment with HL-60(TB) leukemia, 66.5 µM in the experiment with PC-3 prostate, 83.7 µM with U251 CNS and 52.2 µM in the experiment with MOLT-4 leukemia.

Consider `COc1cc(-c2cc(O)c(-c3ccc4ccccc4n3)c(=O)[nH]2)cc(OC)c1OC`, for which the TGI was 66.1 µM in the experiment on SW-620 colon; above 100 µM in the experiment on BT-549 breast; above 78.9 µM in the experiment with SK-MEL-2 melanoma; above 80.6 µM in the experiment on NCI-H460 lung; 62.6 µM in the experiment on SK-MEL-5 melanoma; above 100 µM with HCC-2998 colon. The TGI in the experiment with HL-60(TB) leukemia is 35.3 µM; in the experiment on PC-3 prostate it was above 100 µM; in the experiment on U251 CNS it was above 48.2 µM; in the experiment with MOLT-4 leukemia, 50.9 µM.

Take `CC(=O)C1=C(O)C=C2Oc3c(C(=O)/C=C/c4c(Cl)cccc4Cl)c(O)c(C)c(O)c3[C@]2(C)C1=O`: the GI50 in the experiment with SW-620 colon was 0.64 µM; with BT-549 breast, 1.43 µM; with SK-MEL-2 melanoma, 0.64 µM; in the experiment with NCI-H460 lung it was 1.17 µM; in the experiment with SK-MEL-5 melanoma it was 1.5 µM; in the experiment on HCC-2998 colon, 2.57 µM. Moreover, the GI50 with HL-60(TB) leukemia was 0.849 µM; in the experiment with PC-3 prostate, 0.596 µM; in the experiment on U251 CNS, 0.754 µM; in the experiment on MOLT-4 leukemia, 0.666 µM. Also, the TGI with SW-620 colon is 3.13 µM; in the experiment with BT-549 breast, 5.28 µM; in the experiment with SK-MEL-2 melanoma it was 2.87 µM; in the experiment with NCI-H460 lung, 4.46 µM; in the experiment with SK-MEL-5 melanoma, 3.75 µM; with HCC-2998 colon, 5.26 µM. The TGI in the experiment with HL-60(TB) leukemia stood at 7.08 µM; in the experiment with PC-3 prostate, 2.49 µM; with U251 CNS it was 4.09 µM; with MOLT-4 leukemia it was 8.57 µM.

Values taken from PubChem BioAssay (NCI).
